The values that follow come from patent US10335422B2, “Small molecules that promote skin regeneration” (International Stem Cell Corporation, priority 2013, dated 2019).

Where a name gives a salt, the structure may show the parent alone.

The test system of experiment [1] is human dermal fibroblast (hDF). Kind of experiment: High-throughput proliferation screening assay of human dermal fibroblasts. The format is cell-based. The following applies: at concentration of 200 nM; 3 days of treatment; DAPI imaging. As to the method:
For the proliferation assay, human dermal fibroblast (hDF) were plated into 96 well Black/Clear bottom tissue-culture treated plates (Corning) at 1,000 cells/well in DMEM (Gibco) 15% FBS (HyClone). […] After 3 days of treatment, cells were fixed and stained with DAPI and analyzed using Roche Cellavista High-Content Imaging System (see FIG. 1).

A further experiment deals with EGF. Kind of experiment: High-throughput screening assay for EGF production (ELISA of hDF supernatants). Type of experiment: cell-based, human. The following applies: 3 days of treatment. As to the method: For EGF production assay hDFs were plated into 96 well Clear tissue-culture treated plates (Falcon) at 19,000 cells/well in DMEM (Gibco) 1× N2/B27 Supplement (Invitrogen). […] After 3 days of treatment, supernatants were collected and analyzed for EGF content using EGF Human ELISA Kit (Abcam) and with BioTek Synergy 2 Multi-Detection Microplate Reader (see FIG. 1).
In general terms: In an ELISA, binding on a coated surface is turned into a signal by an enzyme label.

The test system of a further experiment is Collagen Type 1. Kind of experiment: High-throughput screening assay for Collagen Type 1 production (Procollagen Type 1C-Peptide EIA of hDF supernatants). Type of experiment: cell-based, human. The following applies: 3 days of treatment.
For the next experiment, the system named is TGFβ1. As to the kind of experiment: High-throughput screening assay for TGFβ1 production (ELISA of hDF supernatants). Type of experiment: cell-based, human. The settings on record: 3 days of treatment. As to the method: For TGFβ1 production assay hDFs were plated into 96 well Clear tissue-culture treated plates (Falcon) at 19,000 cells/well in DMEM (Gibco) 1× N2/B27 Supplement (Invitrogen). […] After 3 days of treatment, supernatants were collected and analyzed for TGFβ1 content using TGFβ1 Human ELISA Kit (Abcam) and with BioTek Synergy 2 Multi-Detection Microplate Reader (see FIG. 1).

In the next experiment the test system is FGF7. As to the kind of experiment: High-throughput screening assay for FGF7 production (ELISA of hDF supernatants). The format is cell-based, human. The settings on record: at concentration of 25 μM; 3 days of treatment. As to the method: For FGF7 production assay hDFs were plated into 96 well Clear tissue-culture treated plates (Falcon) at 19,000 cells/well in DMEM (Gibco) 1× N2/B27 Supplement (Invitrogen). […] After 3 days of treatment, supernatants were collected and analyzed for FGF7 content using FGF7 Human ELISA Kit (Abcam) and with BioTek Synergy 2 Multi-Detection Microplate Reader (see FIG. 1).

Where [2] appears, read: at concentrations of 25 and 12.5 μM.

For the compound `Cl.Cl.Nc1ncnc2nc(-c3ccc(N4CCOCC4)nc3)cc(-c3cccc(Br)c3)c12` [ABT702 dihydrochloride], the “proliferation level in hDFs” value in experiment [1] is given as “induced the highest proliferation level”. Consider `O=C(O)c1ccc2cc(-c3ccc(O)c(C45CC6CC(CC(C6)C4)C5)c3)ccc2c1` [CD 437], for which, in the experiment on EGF (setting [2]), the “production level of EGF in hDFs” value was “induced the highest production level”. Turning to `O=C(O)c1ccc(-c2ccc3cc(O)c(C45CC6CC(CC(C6)C4)C5)cc3c2)cc1` [CD 1530], the “production level of EGF in hDFs” value with EGF (setting [2]) is listed as “induced the highest production level”. In the case of `CN1Cc2ccccc2[C@@H]2c3cccc4[nH]cc(c34)C[C@H]21` [CY 208-243], the “production level of EGF in hDFs” value in the experiment with EGF (at concentrations of 12.5 μM) is “induced the highest production level”.

For the compound `O=C1CCc2cc(OCCCCc3nnnn3C3CCCCC3)ccc2N1` [Cilostazol], the “production level of Collagen Type 1 in hDFs” value with Collagen Type 1 (at concentration of 6.25 μM) is “induced the highest production level”. With `CN1CCC[C@@H]1CCO[C@](C)(c1ccccc1)c1ccc(Cl)cc1` [Clemastine fumarate], in the experiment on Collagen Type 1 (at concentration of 780 nM), the “production level of Collagen Type 1 in hDFs” value is on record as “induced the highest production level”.

Regarding `OCCN(CCO)c1nc(N2CCCCC2)c2nc(N(CCO)CCO)nc(N3CCCCC3)c2n1` [Dipyridamole], the “production level of Collagen Type 1 in hDFs” value in the experiment with Collagen Type 1 (at concentration of 390 nM) was “induced the highest production level”. As for `CN1CC(=O)NC1=NC(=O)Nc1cccc(Cl)c1` [Fenobam], the “proliferation level in hDFs” value in experiment [1] is recorded as “induced the highest proliferation level”. `CS(=O)(=O)O.N=C(N)SCCc1ccc(OCc2ccc([N+](=O)[O-])cc2)cc1` [KB-R7943 mesylate]: in the experiment with TGFβ1 (at concentration of 1.6 μM), the “production level of TGFβ1 in hDFs” value is given as “induced the highest production level”. For the compound `CCCCC[C@H](O)/C=C/[C@H]1[C@H](O)CC(=O)[C@@H]1C/C=C\CCCC(=O)O` [Prostaglandin E2], in the experiment with FGF7, the “production level of FGF7 in hDFs” value was “induced the highest production level”. Regarding `CN(C)C(=O)C(=O)c1cn(C)c2cc(Cl)c(C(=O)N3CCC(Cc4ccc(F)cc4)CC3)cc12` [SX 011], the “proliferation level in hDFs” value in experiment [1] is on record as “induced the highest proliferation level”. As for `Cc1cc(C)c(S(=O)(=O)Nc2cccc(C(F)(F)F)c2)c(C)c1` [m-3M3FBS], the “production level of TGFβ1 in hDFs” value with TGFβ1 (at concentration of 24 nM) is “induced the highest production level”.

As to PSB 06126, the “production level of EGF in hDFs” value in the experiment with EGF (at concentration of 12.5 (unit not given)) is “induced the highest production level”.

As for Proxyfan Oxalate, the “production level of TGFβ1 in hDFs” value in the experiment with TGFβ1 (at concentration of 24 nM) is “induced the highest production level”.
